Drawing on DBAASP, this text covers MIC for 4 compounds.

Each structure is given as a SMILES string. Values after ≈ are worked out from the molar mass of the structure shown. Values joined by “and” are separate entries in the source; they are usually repeats but may differ in a detail not shown here. Equal entries are not always repeated.

Test systems include Staphylococcus warneri; Acinetobacter sp. M9665; Acinetobacter sp. M13523; Staphylococcus cohnii; Escherichia coli M9884; Acinetobacter sp. M9013; Acinetobacter sp. M5949; Malassezia furfur; Candida albicans; Aspergillus flavus; Trichosporon beigelii.
Test in all cases: ≥ marks a high value that may be exact or a test limit, other limits are often not marked, values filed in µg/mL are converted to µM
Experiment [1] concerns Pseudomonas aeruginosa M13513.
The test system of experiment [2] is Staphylococcus aureus M6276.
The test system of experiment [3] is Staphylococcus haemolyticus M2976.
Experiment [4] concerns Klebsiella pneumoniae M9170.
In experiment [5] the test system is Escherichia coli ATCC 25922.
Experiment [6] deals with Staphylococcus saprophyticus M4070.
Experiment [7] relates to Pseudomonas aeruginosa PACO12.
Experiment [8] deals with Enterococcus faecalis M4899.
Experiment [9] has as its system Enterococcus faecalis M6534.
Experiment [10] concerns Enterococcus gallinarum M2685.
The test system of experiment [11] is Klebsiella pneumoniae PFAV 3.
Experiment [12] concerns Enterococcus faecalis M6983.
Experiment [13] deals with Pseudomonas aeruginosa M5470.
The subject of experiment [14] is Enterococcus faecium PZAP 95.
Experiment [15] has as its system Pseudomonas aeruginosa ATCC 27853.
For experiment [16], the system named is Staphylococcus epidermidis M2921.
Experiment [17] relates to Staphylococcus epidermidis M2923.
Experiment [18] relates to Enterococcus faecalis ATCC 29212.
The test system of experiment [19] is Enterococcus gallinarum M2723.
Experiment [20] concerns Staphylococcus hominis M2973.
Experiment [21] concerns Enterococcus faecalis ATCC 51299.
Experiment [22] concerns Staphylococcus aureus P33.
Experiment [23] has as its system Enterococcus faecium M2304.
Experiment [24] deals with Staphylococcus hominis M2967.
Experiment [25] has as its system Staphylococcus aureus ATCC 25923.
Experiment [26] deals with Staphylococcus aureus P204.
Experiment [27] relates to Escherichia coli CCARM 1229.
Experiment [28] has as its system Staphylococcus epidermidis KCTC 1917.
Experiment [29] concerns Salmonella typhimurium CCARM 8007.
The test system of experiment [30] is Salmonella typhimurium CCARM 8003.
Experiment [31] concerns Staphylococcus aureus CCARM 3114.
Experiment [32] concerns Bacillus subtilis KCTC 3068.
In experiment [33] the test system is Staphylococcus aureus KCTC 1621.
Experiment [34] concerns Staphylococcus aureus CCARM 3089.
Experiment [35] concerns Escherichia coli KCTC 1682.
The subject of experiment [36] is Salmonella typhimurium KCTC 1926.
Experiment [37] concerns Pseudomonas aeruginosa KCTC 1637.
The test system of experiment [38] is Staphylococcus aureus CCARM 3108.
The test system of experiment [39] is Listeria monocytogenes DBFIQ LM3.
Experiment [40] deals with Staphylococcus aureus DBFIQ S21.

`C[C@H](NC(=O)[C@H](CCCCN)NC(=O)[C@H](CCCCN)NC(=O)[C@H](CCCN=C(N)N)NC(=O)CNC(=O)[C@H](Cc1c[nH]c2ccccc12)NC(=O)[C@H](CCCN=C(N)N)NC(=O)[C@H](CCCN=C(N)N)NC(=O)[C@H](CCCCN)NC(=O)[C@H](Cc1c[nH]c2ccccc12)NC(=O)[C@H](CCCCN)NC(=O)[C@H](Cc1c[nH]c2ccccc12)NC(=O)[C@H](Cc1c[nH]c2ccccc12)NC(=O)[C@H](CCCCN)NC(=O)[C@@H]1CCCN1C(=O)[C@@H](N)Cc1c[nH]c2ccccc12)C(=O)N[C@@H](CCCCN)C(=O)N[C@@H](CCCCN)C(=O)N[C@@H](CCCN=C(N)N)C(=O)N[C@@H](CCCN=C(N)N)C(=O)NCC(N)=O` [WPKWWKWKRRWGRKKAKKRRG]: the MIC was 11 µM (≈ 32 µg/mL) in [1]; 5.5 µM (≈ 16 µg/mL) in [2]; 2.75 µM (≈ 8 µg/mL) against Staphylococcus warneri; 5.5 µM (≈ 16 µg/mL) in experiment [3]; ≥ 352 µM in experiment [4]; 44 µM and 43.9 µM in [5]. Besides, the minimum inhibitory concentration (MIC) in experiment [6] was 5.5 µM (≈ 16 µg/mL); in experiment [7] it was 22 µM (≈ 64 µg/mL); in experiment [8], ≥ 88 µM; in experiment [9] it was ≥ 44 µM; in experiment [10], 5.5 µM (≈ 16 µg/mL); in [11], ≥ 352 µM. Further, the MIC was 22 µM (≈ 64 µg/mL) in [12]; ≥ 44 µM in experiment [13]; 11 µM (≈ 32 µg/mL) in [14]; 22 µM (≈ 64 µg/mL) in [15]; ≥ 44 µM in the experiment on Acinetobacter sp. M9665; 2.75 µM (≈ 8 µg/mL) in experiment [16]. The MIC in [17] was 5.5 µM (≈ 16 µg/mL); in experiment [18] it was 22 µM (≈ 64 µg/mL); in experiment [19], 11 µM (≈ 32 µg/mL); against Acinetobacter sp. M13523, 22 µM (≈ 64 µg/mL); in experiment [20], 1.37 µM (≈ 4 µg/mL); in experiment [21], ≥ 88 µM. Moreover, the MIC in experiment [22] was 11 µM (≈ 32 µg/mL); in experiment [23], 5.5 µM (≈ 16 µg/mL); in experiment [24] it was 2.75 µM (≈ 8 µg/mL); against Staphylococcus cohnii, 5.5 µM (≈ 16 µg/mL); in experiment [25], 11 µM and 10.9 µM; in experiment [26], 22 µM (≈ 64 µg/mL). The MIC is ≥ 44 µM in the experiment on Escherichia coli M9884, 11 µM (≈ 32 µg/mL) in the experiment with Acinetobacter sp. M9013 and ≥ 88 µM in the experiment with Acinetobacter sp. M5949.
Turning to `CC(C)C[C@H](NC(=O)[C@H](Cc1c[nH]c2ccccc12)NC(=O)[C@H](CC(C)C)NC(=O)[C@@H](N)CCCN=C(N)N)C(=O)N[C@@H](C)C(=O)N[C@@H](Cc1c[nH]c2ccccc12)C(=O)N[C@@H](CCCCN)C(=O)N[C@@H](CCCN=C(N)N)C(=O)N[C@@H](CCCN=C(N)N)C(N)=O` [RLWLAWKRR], the MIC in [27] was 4 µM (≈ 5.13 µg/mL); in experiment [28], 1 µM (≈ 1.28 µg/mL); in the experiment on Malassezia furfur, 1.25 µM (≈ 1.6 µg/mL); in experiment [29] it was 8 µM (≈ 10.3 µg/mL); in experiment [30], 4 µM (≈ 5.13 µg/mL); in experiment [31], 8 µM (≈ 10.3 µg/mL). The minimal inhibitory concentration (MIC) stood at 2.5 µM (≈ 3.21 µg/mL) against Candida albicans; 2 µM (≈ 2.57 µg/mL) in experiment [32]; 2 µM (≈ 2.57 µg/mL) in [33]; 5 µM (≈ 6.42 µg/mL) against Aspergillus flavus; 4 µM (≈ 5.13 µg/mL) in experiment [34]; 5 µM (≈ 6.42 µg/mL) against Trichosporon beigelii. The MIC in experiment [35] was 2 µM (≈ 2.57 µg/mL); in experiment [36], 2 µM (≈ 2.57 µg/mL); in experiment [37] it was 8 µM (≈ 10.3 µg/mL).
With `CC[C@H](C)[C@H](NC(=O)[C@H](C)NC(=O)[C@H](CC(C)C)NC(=O)[C@H](Cc1c[nH]c2ccccc12)NC(=O)[C@H](CC(C)C)NC(=O)[C@@H](N)CCCN=C(N)N)C(=O)NCC(=O)N[C@@H](CCCN=C(N)N)C(=O)N[C@@H](CCCN=C(N)N)C(N)=O` [RLWLAIGRR], the MIC in experiment [38] is 4 µM (≈ 4.56 µg/mL); in experiment [27], 8 µM (≈ 9.12 µg/mL); in experiment [28] it was 2 µM (≈ 2.28 µg/mL); in [30] it was ≥ 32 µM; in [31], 16 µM (≈ 18.2 µg/mL); in [32] it was 4 µM (≈ 4.56 µg/mL). Besides, the MIC in experiment [33] came to 4 µM (≈ 4.56 µg/mL); in experiment [34], 8 µM (≈ 9.12 µg/mL); in experiment [35], 4 µM (≈ 4.56 µg/mL); in experiment [36] it was 16 µM (≈ 18.2 µg/mL); in [37], 16 µM (≈ 18.2 µg/mL).
With `CC[C@H](C)[C@H](NC(=O)[C@H](C)NC(=O)[C@@H](NC(=O)[C@H](C)NC(=O)CN)[C@@H](C)O)C(=O)N[C@@H](CCCCN)C(=O)N[C@@H](CCC(N)=O)C(=O)N[C@H](C(=O)N[C@@H](CCCCN)C(=O)N[C@@H](CCCCN)C(=O)N[C@@H](CC(C)C)C(=O)N[C@@H](Cc1c[nH]c2ccccc12)C(=O)N[C@@H](CCCCN)C(=O)N[C@@H](CCCCN)C(=O)N[C@@H](CCCCN)C(=O)NCC(=O)NCC(N)=O)C(C)C` [GATAIKQVKKLWKKKGG], the MIC in experiment [39] and in experiment [40] was ≥ 69.6 µM throughout.
